Common to all, as to assay type: cell-based
For one test, the system named is Cdsn (corneodesmosine). Briefly: Differential expression by cDNA minichips in NHEK: corneodesmosine (Cdsn). Particulars: normal human epidermal keratinocytes (NHEK), cDNA array. Here is the method:
(§1) Analysis of the Differential expression by Minichips:
(§2) In order to study the activity of a product on the formation of the horny layer, the effect of the product on the expression of genes known to be modulated in keratinocytes during their transformation into corneocytes is analyzed.
(§3) The analysis is performed using dedicated minichips, consisting of cDNA membrane arrays known to those skilled in the art for their relationship with re-epithelialization and/or cohesion of the horny layer, especially such as the LEP proteins (late epidermal proteins), corneodesmosines and epidermal growth factor HBEGF (human heparin-binding EGF-like growth factor).
(§4) The cell model used comprises normal human epidermal keratinocytes (NHEK). The keratinocytes are cultured in SFM medium with 0.25 ng/ml EGF and 25 μg/ml of pituitary extract at 37° C. and 5% CO2. The keratinocytes are inoculated in 25 cm^2 dishes and precultured in whole SFM medium, and then placed in EGF-free and pituitary extract-free SFM medium.
(§5) The test products are applied at the non-irritant and non-cytotoxic concentrations defined in a).
(§6) The controls correspond to the same conditions, in the absence of product.
(§7) The cells are then rinsed with PBS and then lysed and the messenger RNA is extracted and purified using the kit Chemagic mRNA Direct kit marketed by Chemagen.
(§8) The RNA of each culture is then reverse-transcripted using a pool of primers corresponding to the cDNAs immobilized on the membranes (probes) and a ^33P-labelled deoxynucleotide triphosphate.
(§9) Multiple cDNA “target” labeled sequences were thus prepared for each culture. These targets were then hybridized, under optimal conditions, with the excess “probe” cDNAs bound to the membranes. […] The membrane analysis was performed using the ImageQuant TL software (Image Analysis, Amersham Biosciences) and the data recorded were then processed on Excel. The differential expression of the various genes following the treatment is thus measured by comparison with the corresponding control.

In the next test the test system is LEP16. Briefly: Differential expression by cDNA minichips in NHEK: LEP16. The conditions noted are these: normal human epidermal keratinocytes (NHEK), cDNA array. On the procedure: as §1, §2, §3, §4, §5, §6, §7, §8, §9
In test [1] the test system is HBEGF (human heparin-binding EGF-like growth factor). Briefly: Differential expression by cDNA minichips in NHEK: HBEGF. The conditions noted are these: 1 μg/ml, normal human epidermal keratinocytes (NHEK), cDNA array. Here is the method: as §1, §2, §3
The cell model used comprises normal human epidermal keratinocytes (NHEK). The keratinocytes are cultured in SFM medium with 0.25 ng/ml EGF and 25 μg/ml of pituitary extract at 37° C. and 5% CO2. The keratinocytes are inoculated in 25 cm^2 dishes and precultured in whole SFM medium, and then placed in EGF-free and pituitary extract-free SFM medium. […]
Multiple cDNA “target” labeled sequences were thus prepared for each culture. […] The membrane analysis was performed using the ImageQuant TL software (Image Analysis, Amersham Biosciences) and the data recorded were then processed on Excel. The differential expression of the various genes following the treatment is thus measured by comparison with the corresponding control.

The mark [2] stands for this setting: 1 μg/ml, listed as 8-hexadecene-1,16-dicarboxylic acid.

As for `O=C(O)CO` [Glycolic acid, reference compound], the “Markers for intercorneocytic cohesion (Cdsn): Cdsn expression, multiplicative factor vs control” value with Cdsn (corneodesmosine) (100 μg/ml) was “Cdsn (×1.6)”. For the same compound, the “Markers for the formation of the horny layer (LEP): LEP16 expression, multiplicative factor vs control” value (“Markers for the formation … vs control” for short) in the test on LEP16 (100 μg/ml) was “LEP16 (×2.6)”.
Take `O=C1O[C@H]([C@@H](O)CO)C(O)=C1O` [Ascorbic acid, reference compound]: the “Markers for intercorneocytic cohesion (Cdsn): Cdsn expression, multiplicative factor vs control” value with Cdsn (corneodesmosine) (100 μg/ml) is reported as “Cdsn (×1.7)”.
With `O=C(O)CCCCCCCC=CCCCCCCCC(=O)O` [Dioic acid, 8-hexadecene-1,16-dicarboxylic acid], the entries for the “Markers for intercorneocytic cohesion (Cdsn): Cdsn expression, multiplicative factor vs control” value in the test on Cdsn (corneodesmosine) (1 μg/ml) and in the test with Cdsn (corneodesmosine) (setting [2]) were “Cdsn (×2.4)” and “capable of stimulating the expression”, respectively. Further, the “Re-epithelialization markers: HBEGF expression, multiplicative factor vs control” value in test [1] is “HBEGF (×1.6)”; in test [1] (listed as 8-hexadecene-1,16-dicarboxylic acid), “capable of stimulating the expression”. The “Markers for the formation … vs control” value in the test with LEP16 (1 μg/ml) is listed as “LEP16 (×3.0)”; in the test on LEP16 (setting [2]) it was “capable of stimulating the expression”.
Regarding `CC(O)C(=O)O` (stereo not shown) [Lactic acid, reference compound], the “Markers for the formation … vs control” value in the test on LEP16 (100 μg/ml) is listed as “LEP16 (×1.6)”.

The record behind these values is patent US20070059269A1, “Administration of 8-hexadecene-1,16-dicarboxylic acid for promoting cohesion of the epidermal horny layer” (L'OREAL, priority 2005, published 2007).
